From patent US9045505B2, “Nitric oxide donors” (University of Otago, priority 2006, dated 2015)

System: liver mitochondria
Test: Exposed protein thiols, glutathionylation and GSH/GSSG in liver mitochondria
Format: biochemical, rat
Protocol: Mitochondrial incubations were usually in KCl buffer (120 mM KCl, 10 mM HEPES, 1 mM EGTA, 100 μM N,N-bis(2-bis[carboxymethyl]aminoethyl) glycine (DTPA) and 10 μM neocuproine, pH 7.2) with 10 mM succinate and 4 μg/ml rotenone in the dark at 37° C., unless stated otherwise. An electrode selective for the TPP moiety of MitoSNAP and MitoNAP was made and used as described previously (Asin-Cayuela, J., Manas, A. R., James, A. M., Smith, R. A. & Murphy, M. P. Fine-tuning the hydrophobicity of a mitochondria-targeted antioxidant. FEBS Letts. 571, 9-16 (2004)). Respiration rates were measured in a Clark type O2 electrode (Rank Brothers, UK). To measure GSH and GSSG, mitochondria (1 mg protein/ml) were incubated with 0-10 μM MitoSNO1 or MitoNAP for 10 min, pelleted by centrifugation and the GSH and GSSG contents assessed by the recycling assay (Scarlett, J. L., Packer, M. A., Porteous, C. M. & Murphy, M. P. Alterations to glutathione and nicotinamide nucleotides during the mitochondrial permeability transition induced by peroxynitrite. Biochem. Pharmacol. 52, 1047-1055 (1996)). The measurement of exposed mitochondrial protein thiols is described below.
Small molecules were removed by centrifugation through MicroBioSpin Columns (cut off=6 kDa), the eluate was clarified by centrifugation (2 min at 10,000×g) and protein thiols measured in triplicate by mixing 10 μl sample or GSH standard with 160 μl of 200 μM dithionitrobenzoic acid (DTNB) in 80 mM NaPi, 1 mM EDTA, pH 8 in a 96 well plate and absorbance at 412 nm was measured after 30 min at room temperature and the thiol content determined from the GSH standard curve. The protein concentration was measured in parallel by the bicinchonininc assay using BSA as a standard.
The interaction of MitoSNAP with mitochondrial thiol proteins is likely to initiate a dynamic process that may lead to other protein thiol modifications, such as disulfide formation, glutathionylation, sulfenylation or sulfenylamide formation, in addition to persistent S-nitrosation. To assess these, the content of reactive, solvent-exposed thiols on native liver mitochondrial proteins was measured. […] This is consistent with the finding that the maximum extent of mitochondrial protein S-nitrosation by 5 μM MitoSNAP (˜500 pmol SNO/mg protein; FIG. 11) was only ˜1% of the total number of protein thiols available. A small amount of MitoSNAP binding to mitochondrial thiol proteins through the formation of mixed disulfides was detectable by immunoblotting.

CC(=O)NC(C(=O)NCCCCC[P+](c1ccccc1)(c1ccccc1)c1ccccc1)C(C)(C)SN=O.CS(=O)(=O)[O-] (stereo not drawn) [MitoSNAP, [5-(2-acetylamino-3-methyl-3-nitrosothio-butyrylamino)-penty1]-triphenylphosphonium methanesulfonate]
reactive, solvent-exposed thiols on native liver mitochondrial proteins (5 μM, 5 min, mean±sem, n=3): 46.7±9.6 nmol thiols/mg protein | GSH and GSSG content of mitochondria (10 μM, 10 min): no loss of GSH or accumulation of GSSG | protein-glutathione mixed disulfides (glutathionylation) (mitochondria, MitoSNAP 5 μM): not detectable
